The record followed here is patent publication US5409946A, “Isoxazole, isothiazole and pyrazole compounds that enhance cognitive function” (Abbott Laboratories, priority 1993, dated 1995).

Each structure is given as a SMILES string. Entries after “also recorded” stand apart in the source; their conditions may differ. Like-named read-outs stand apart in the source and are kept apart here.

Series [1] concerns the target neuronal nicotinic receptors. Briefly: Displacement of [3H]-MCC or [3H]-cytisine from neuronal nicotinic receptors, whole rat brain membranes. Format: binding. As to the method: Binding of [^3 H]-methylcarbamylcholine ([^3 H]-MCC) or [^3 H]-cytisine ([^3 H]-CYT) to nicotinic receptors was accomplished using crude synaptic membrane preparations from whole rat brain (Snyder and Enna, Brain Research, 1975, 100:81). Washed membranes were stored at -80° C. prior to use. Frozen aliquots were slowly thawed and resuspended in 20 volumes of buffer (containing: 120 mM NaCl, 5 mM KCl, 2 mM MgCl2, 2 mM CaCl2 and 50 mM Tris-Cl, pH 7.4 @4° C). After centrifuging at 20,000 X g for 15 minutes, the pellets were resuspended in 30 volumes of buffer. Homogenate (containing 125-150 μg protein) was added to triplicate tubes containing concentrations of test compound and [^3 H]-MCC (3 nM) in a final volume of 500 μL. Samples were incubated for 60 minutes at 4° C., then rapidly filtered through Whatman GF/B filters presoaked in 0.5% polyethylimine using 3×4 mL of ice-cold buffer. Alternately, homogenate and test compound were incubated for 75 min with [^3 H]-CYT (1.3 nM), then rapidly filtered, as described above. The filters are counted in 4 mL of Ecolume® (ICN). […] IC50 values were determined with the ALLFIT nonlinear least squares curve-fitting program and IC50 values were converted to Ki values using the Cheng and Prusoff correction (Ki =IC50 /(1+[ligand]/Kd of ligand)). Alternately, data were expressed as a percentage of the total specific binding.
For orientation: Loss of bound radioactivity is the signal in a displacement assay; it reports binding, not function.

Series [2] relates to basal forebrain neurotransmission / cortical cerebral blood flow. Briefly: Cerebral blood flow (laser-doppler flowmetry) and mean arterial pressure with basal forebrain stimulation. It is filed as in vivo, male Sprague-Dawley rats. The method, then: Methods for surgical preparation of rats for electrical stimulation of brain and measurement of CBF have been previously described (Nakai et al., Am. J. Physiol., 1982, 243: 226) and are summarized below.
Studies are conducted on male Sprague-Dawley rats that are maintained in a thermally-controlled (26°-27° C.), light-cycled (7.00 hour on-19.00 hour off) environment, fed standard rat chow and given water ad libitum. Anesthesia is induced with halothane (3.5%; balance O2) delivered through a nose mask and maintained at 2% during the initial surgery. Thin-wall vinyl catheters (o.d.=0.03 inch) are placed in each femoral artery and vein, and the trachea is cannulated.
Animals are subsequently co-anesthetized with urethane (1.5 g/kg, s.c.) and placed in a stereotaxic frame with the head positioned so that the floor of the IVth ventricle was horizontal (incisor bar position: -11 mm. ). After connecting the tracheal cannula to a small-animal respirator, the animals are temporarily paralyzed with d-tubocurarine (0.6 mg/kg/h, i.m.), and ventilated (80 cpm) with 100% O2. Arterial pressure (AP) and heart rate (HR) are continuously monitored through one of the arterial catheters connected to a Statham P23Db transducer that is coupled to a chart recorder. The level of anesthesia during surgery or subsequent experimental testing is assessed by the AP response to tail pinch, with increasing levels of arousal giving rise to irregular AP readings. Booster doses of urethane (250 mg/kg, s.c.) are given as needed.
Bilateral craniotomies (approximately 4 mm×11 mm) are performed overlying the frontoparietal cortices taking care to leave the dura intact. Halothane is delivered at a reduced rate of 1% during cranial surgery and discontinued afterward. A small volume (about 0.2 ml) of arterial blood is sampled after completion of all surgery for measurement of PO2, PCO2 and pH by a blood gas analyzer. Arterial blood gases are maintained so that PO2 was greater than 100 mm Hg, PCO2 =33-38 mmHg, and pH=7.35-7.45. Maintaining these values is accomplished by adjusting the stroke volume of the ventilator. Once appropriate physiological parameters are obtained (approximately 30 min), the experimental protocol is initiated.
The basal forebrain (BF) is stimulated with cathodal current delivered through a stainless steel concentric bipolar electrode ([…]) made by Rhodes Medical Instruments (Model SNEX-100). Electrical pulses are generated by a square wave stimulator (Grass, Model S-88) and constant current is passed through a photoelectric stimulus-isolation unit (Grass, Model PSIU6). The stimulus current is measured on an oscilloscope by continuously displaying the voltage drop across a 10-ohm resistor.
The procedure for eliciting an increased cortical CBF response requires the stereotaxic placement of the stimulating electrode into the BF. For positioning, the electrode is inclined posteriorly to 18 degrees, and the stereotaxic coordinates used were 5.0 mm posterior to, and 2.6 mm lateral to bregma (stereotaxic zero reference point). […] These parameters have been shown previously to elicit maximal increases in cortical CBF (Arneric, Excerpta Medica International Congress Series, 869:381, 1989). The region of the BF that selectively affects cortical CBF is restricted, with electrode movements of 0.5 mm dorsal or ventral to this site eliciting potent vasodepressor responses in addition to the increases in CBF. […] When CBF increases of approximately 100% or greater are repeatedly obtained in the absence of significant changes in AP (<10 mm Hg) or HR (<10 beats/min.), and when the perfusion rate is stable in the absence of BF stimulation, the experimental testing is started.
The principles and technical aspects of laser-doppler flowmetry (LDF) are presented in detail in Bonner et al., Appl. Opt., 1981, 20:2097 and Stern et al., Am. J. Physiol., 1977, 232:H441. […]

For a further series, the system named is 1-4 Hz slow wave EEG. Briefly: 1-4 Hz slow wave EEG amplitude. It is filed as in vivo, male Wistar rats.

As for `Cc1cc([C@@H]2CCCN2C)on1.O=C(O)C(=O)O` [Example 2, 3-Methyl-5-(1-methyl-2(S)-pyrrolidinyl)-isoxazole oxalate salt], the Ki (as a rule, the dissociation constant of the complex between target and ligand, obtained from inhibition or displacement) in series [1] (Table 1, oxalate salt, read-out: Nicotinic Receptor Ki) came out at 5 nM; in series [1] (Table 2, read-out: Nicotinic Ki), 5 nM. Moreover, the “BF-elicited CBF % change from pre-drug control” value in series [2] (0.004 μmol/kg i.v.) is recorded as “+68%”; in series [2] (0.040 μmol/kg i.v., *p < 0.05), “+60%”; in series [2] (0.400 μmol/kg i.v., *p < 0.05) it was “+68%”. The “MAP % change from pre-drug control” value was “+5%” in series [2] (0.004 μmol/kg i.v.), -5% in series [2] (0.040 μmol/kg i.v.) and -13% in series [2] (0.400 μmol/kg i.v.). In addition, the “resting CBF % change from pre-drug control” value is listed as “+5%” in series [2] (0.004 μmol/kg i.v.), -2% in series [2] (0.040 μmol/kg i.v.) and -6% in series [2] (0.400 μmol/kg i.v.). Further, the “effect on resting CBF and the BF-elicited CBF response” value in series [2] (i.v., low concentrations, n=3) is “effective in enhancing resting CBF and the BF-elicited CBF response”. Moreover, the “effects on MAP / blood pressure” value in series [2] (i.v., oxalate salt) is listed as “No remarkable effects on MAP; also recorded: no overt effects on blood pressure”. For the same compound, the “1-4 Hz amplitude” value in the series on 1-4 Hz slow wave EEG (1.9 μmol/kg i.p.) was 27.3 ± 5.0 μVolts. Moreover, in the series with 1-4 Hz slow wave EEG (i.p.), the “effect on low frequency (1-4 Hz) EEG slow-wave patterns” value is given as “does not affect those patterns”.
